The subject of the test is primary human skeletal myotubes. As to the kind of experiment: Fatty acid oxidation (FAO) assay, 3H-palmitate. Type of test: cell-based. The note with it: 24 hours. The method, then: FAO rates were determined for primary human skeletal myotubes with or without SBI-477 using 125 μM [3H]-palmitic acid (Djouadi, et al., Mol Genet Metab. 2003; 78(2):112-118). Primary human skeletal myotubes were grown and differentiated in 24-well plates. Cells were treated with the indicated concentration of SBI-477 for 24 hours. Following compound treatment, cells were rinsed three times with PBS and then incubated in 125 μM [3H]-palmitic acid (60 Ci/mmol) bound to fatty acid free albumin containing 1 mM carnitine for 2 hours at 37° C. The cell medium was transferred to a tube containing cold 10% trichloroacetic acid (TCA). The tubes were centrifuged at 8,500×g for 10 minutes at 4° C. The supernatant was immediately removed, mixed with 6N NaOH, and applied to ion-exchange resin (DOWEX 1; Sigma-Aldrich). The eluate was collected, measured by liquid scintillation analyzer (PerkinElmer) and normalized to total protein amount. The amount of cell protein was measured by Micro BCA protein assay kit (Thermo Scientific).

These results are taken from US11028061B2, “Modulators of myocyte lipid accumulation and insulin resistance and methods of use thereof” (Sanford Burnham Prebys Medical Discovery Institute, priority 2015, dated 2021).

As to `COc1ccc(-c2csc(NC(=O)c3ccc(OCC(=O)N4CCOCC4)c(OC)c3)n2)cc1` [Cpd. 7, 3-methoxy-N-(4-(4-methoxyphenyl)thiazol-2-yl)-4-(2-morpholino-2-oxoethoxy)benzamide], the FAO rates result is given as “increased by SBI-477 in a dose-dependent manner”.
